The record followed here is patent US11524968B2, “Heterocyclic compound as a protein kinase inhibitor” (HK inno.N Corporation, priority 2017, dated 2022).

Sequence of JAK1 (P23458 whole entry): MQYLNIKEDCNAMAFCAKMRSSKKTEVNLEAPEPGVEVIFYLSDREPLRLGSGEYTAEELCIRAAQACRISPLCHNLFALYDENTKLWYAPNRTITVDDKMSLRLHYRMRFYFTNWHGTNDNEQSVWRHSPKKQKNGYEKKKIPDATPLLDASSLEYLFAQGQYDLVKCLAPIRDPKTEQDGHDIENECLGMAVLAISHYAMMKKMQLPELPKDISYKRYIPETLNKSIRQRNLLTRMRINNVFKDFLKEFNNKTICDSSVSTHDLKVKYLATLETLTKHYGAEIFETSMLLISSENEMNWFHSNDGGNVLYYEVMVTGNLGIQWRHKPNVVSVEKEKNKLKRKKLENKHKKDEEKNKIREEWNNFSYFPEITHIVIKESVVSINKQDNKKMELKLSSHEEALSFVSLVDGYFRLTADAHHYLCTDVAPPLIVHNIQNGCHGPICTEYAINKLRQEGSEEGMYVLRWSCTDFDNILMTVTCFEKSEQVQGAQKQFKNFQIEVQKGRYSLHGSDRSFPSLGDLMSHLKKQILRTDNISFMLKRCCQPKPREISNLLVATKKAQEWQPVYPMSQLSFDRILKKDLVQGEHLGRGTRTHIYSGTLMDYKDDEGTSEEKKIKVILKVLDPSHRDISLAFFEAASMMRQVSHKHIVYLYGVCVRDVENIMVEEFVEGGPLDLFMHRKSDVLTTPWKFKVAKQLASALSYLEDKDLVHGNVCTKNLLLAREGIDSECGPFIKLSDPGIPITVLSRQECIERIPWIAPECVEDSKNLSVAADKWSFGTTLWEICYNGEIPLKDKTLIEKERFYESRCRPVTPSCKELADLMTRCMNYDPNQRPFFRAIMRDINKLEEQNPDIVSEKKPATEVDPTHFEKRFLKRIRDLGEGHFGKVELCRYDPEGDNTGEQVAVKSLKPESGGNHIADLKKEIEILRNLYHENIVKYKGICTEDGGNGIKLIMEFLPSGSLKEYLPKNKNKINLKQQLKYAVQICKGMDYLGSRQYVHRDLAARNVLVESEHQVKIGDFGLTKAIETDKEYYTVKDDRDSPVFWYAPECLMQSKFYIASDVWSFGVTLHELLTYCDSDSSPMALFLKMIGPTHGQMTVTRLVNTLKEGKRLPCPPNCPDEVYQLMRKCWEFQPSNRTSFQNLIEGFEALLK

This assay deals with JAK1 (Homo sapiens (Human), UniProt P23458). Briefly: Analysis of JAK1 activity inhibition ability (ADP-Glo Kinase Assay). The format is biochemical. The settings on record: JAK1 enzyme, ADP-Glo luminescence, ATP 250 uM, IRS-itide substrate, 30° C. 40 minutes; read-out: IC50. The method, boiled down:
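ADP-Glo luminescence read-out of ADP production, with IC50 taken as the concentration halving JAK1 activity relative to control. Enzyme was incubated 40 min at 30 °C with compound, IRS-itide (40 ng/mL) and ATP (250 uM), concentrations as prepared in pH 7.5 Tris-HCl/MgCl2/BSA/DTT buffer.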
One may read the IC50 as the concentration at which inhibition is half-maximal. For `O=C(Cc1ccc(-c2cc(NC(=O)C3CC3)nc3[nH]ccc23)cc1)Nc1ccon1` [Example 544, N-(4-(4-(2-(isoxazol-3-ylamino)-2-oxoethyl)phenyl)-1H-pyrrolo[2,3-b]pyridin-6-yl)cyclopropanecarboxamide], the IC50 fell in the range of 20 to 200 nM.
As for `C[C@@H]1CC(c2cc(NC(=O)C3CC3)nc3[nH]ccc23)=CCN1C(=O)CC#N` [Example 389, (R)—N-(4-(1-(2-cyanoacetyl)-2-methyl-1,2,3,6-tetrahydropyridin-4-yl)-1H-pyrrolo[2,3-b]pyridin-6-yl)cyclopropanecarboxamide], the figure is under 20 nM.
For `N#CCCCS(=O)(=O)NC1CC=C(c2cc(NC(=O)C3CC3)nc3[nH]ccc23)CC1` (stereo not shown) [Example 158, N-(4-(4-((3-cyanopropyl)sulfonamido)cyclohex-1-en-1-yl)-1H-pyrrolo[2,3-b]pyridin-6-yl)cyclopropanecarboxamide], the IC50 was under 20 nM.
As for `N#CCCN1CC=C(c2cc(NC(=O)C3CC3)nc3[nH]ccc23)CC1` [Example 486, N-(4-(1-(2-cyanoethyl)-1,2,3,6-tetrahydropyridin-4-yl)-1H-pyrrolo[2,3-b]pyridin-6-yl)cyclopropanecarboxamide], the figure is 20 to 200 nM.
As for `O=C(Nc1nc(-c2ccc(NS(=O)(=O)c3ccc(F)c(F)c3)c(F)c2)c2cc[nH]c2n1)C1CC1` [Example 205, N-(4-(4-((3,4-difluorophenyl)sulfonamido)-3-fluorophenyl)-7H-pyrrolo[2,3-d]pyrimidin-2-yl)cyclopropanecarboxamide], the figure is 20 to 200 nM; as for `O=C(Nc1cc(C2=CCC(NS(=O)(=O)c3ccc(F)c(F)c3)CC2)c2cc[nH]c2n1)C1CC1` (stereo not shown) [Example 162, N-(4-(4-((3,4-difluorophenyl)sulfonamido)cyclohex-1-en-1-yl)-1H-pyrrolo[2,3-b]pyridin-6-yl)cyclopropanecarboxamide], under 20 nM.
With `CCS(=O)(=O)Nc1ccc(-c2cc(NC(=O)C3CC3)nc3[nH]ccc23)cc1C(F)(F)F` [Example 98, N-(4-(4-(ethylsulfonamido)-3-(trifluoromethyl)phenyl)-1H-pyrrolo[2,3-b]pyridin-6-yl)cyclopropanecarboxamide] the figure was 20 to 200 nM; with `O=C(Nc1nc(-c2ccc(NS(=O)(=O)c3ccc(F)c(F)c3)cc2)c2nc[nH]c2n1)C1CC1` [Example 208, N-(6-(4-((3,4-difluorophenyl)sulfonamido)phenyl)-9H-purin-2-yl)cyclopropanecarboxamide], over 200 nM.
As for `O=C(Nc1cc(C2=CCN(C(=O)c3cscn3)CC2)c2cc[nH]c2n1)C1CC1` [Example 291, N-(4-(1-(thiazole-4-carbonyl)-1,2,3,6-tetrahydropyridin-4-yl)-1H-pyrrolo[2,3-b]pyridin-6-yl)cyclopropanecarboxamide], the IC50 is over 200 nM.
With `N#CCC(=O)NC1CC=C(c2cc(NC(=O)C3CC3)nc3[nH]ccc23)CC1` (stereo not shown) [Example 247, N-(4-(4-(2-cyanoacetamido)cyclohex-1-en-1-yl)-1H-pyrrolo[2,3-b]pyridin-6-yl)cyclopropanecarboxamide], the IC50 fell in the range of 20 to 200 nM.
With `CCS(=O)(=O)N1CC(n2cc(-c3cc(NC(=O)C4CC4)nc4[nH]ccc34)cn2)C1` [Example 601, N-(4-(1-(1-(ethylsulfonyl)azetidin-3-yl)-1H-pyrazol-4-yl)-1H-pyrrolo[2,3-b]pyridin-6-yl)cyclopropanecarboxamide], the IC50 is 20 to 200 nM.
With `O=C(Nc1cc(-c2ccc(NS(=O)(=O)c3ccc(Br)cc3)cc2)c2cc[nH]c2n1)C1CC1` [Example 20, N-(4-(4-((4-bromophenyl)sulfonamido)phenyl)-1H-pyrrolo[2,3-b]pyridin-6-yl)cyclopropanecarboxamide] the figure was 20 to 200 nM; with `N#CCC(=O)N1C[C@@H]2C[C@H]1CN2c1cc(NC(=O)C2CC2)nc2[nH]ccc12` [Example 679, N-(4-((1S,4S)-5-(2-cyanoacetyl)-2,5-diazabicyclo[2.2.1]heptan-2-yl)-1H-pyrrolo[2,3-b]pyridin-6-yl)cyclopropanecarboxamide], over 200 nM.
As for `O=C(Nc1cc(-c2ccc(NC3CCN(C(=O)c4ccnc(F)c4)CC3)c(F)c2)c2cc[nH]c2n1)C1CC1` [Example 500, N-(4-(3-fluoro-4-((1-(2-fluoroisonicotinoyl)piperidin-4-yl)amino)phenyl)-1H-pyrrolo[2,3-b]pyridin-6-yl)cyclopropanecarboxamide], the figure is over 200 nM; as for `NC(=O)c1ccc(S(=O)(=O)Nc2ccc(-c3nc(NC(=O)C4CC4)nc4[nH]ccc34)cc2)cc1` [Example 200, 4-(N-(4-(2-(cyclopropanecarboxamido)-7H-pyrrolo[2,3-d]pyrimidin-4-yl)phenyl)sulfamoyl)benzamide], over 200 nM.
For `O=C(Nc1cc(C2=CCN(S(=O)(=O)CCCF)CC2)c2cc[nH]c2n1)C1CC1` [Example 167, N-(4-(1-((3-fluoropropyl)sulfonyl)-1,2,3,6-tetrahydropyridin-4-yl)-1H-pyrrolo[2,3-b]pyridin-6-yl)cyclopropanecarboxamide], the IC50 lay in the range of 20 to 200 nM.
As for `O=C(Nc1cc(C2=CCN(C(=O)CN3CCS(=O)(=O)CC3)CC2)c2cc[nH]c2n1)C1CC1` [Example 251, N-(4-(1-(2-(1,1-dioxidothiomorpholino)acetyl)-1,2,3,6-tetrahydropyridin-4-yl)-1H-pyrrolo[2,3-b]pyridin-6-yl)cyclopropanecarboxamide], the figure is 20 to 200 nM.
As for `N#CCCCS(=O)(=O)Nc1cc(F)c(-c2cc(NC(=O)C3CC3)nc3[nH]ccc23)cc1F` [Example 104, N-(4-(4-((3-cyanopropyl)sulfonamido)-2,5-difluorophenyl)-1H-pyrrolo[2,3-b]pyridin-6-yl)cyclopropanecarboxamide], the figure is 20 to 200 nM; as for `O=C(Nc1nc(-c2ccc(CNc3cccc(F)c3)cc2)c2nc[nH]c2n1)C1CC1` [Example 598, N-(6-(4-(((3-fluorophenyl)amino)methyl)phenyl)-9H-purin-2-yl)cyclopropanecarboxamide], over 200 nM.
With `CS(=O)(=O)Nc1ccc(-c2cc(NC(=O)C3CC3)nc3[nH]ccc23)cc1-c1ccccc1` [Example 129, N-(4-(6-(methylsulfonamido)-[1,1′-biphenyl]-3-yl)-1H-pyrrolo[2,3-b]pyridin-6-yl)cyclopropanecarboxamide] the figure was over 200 nM; with `CNC(=O)Cc1ccc(-c2cc(NC(=O)C3CC3)nc3[nH]ccc23)cc1` [Example 539, N-(4-(4-(2-(methylamino)-2-oxoethyl)phenyl)-1H-pyrrolo[2,3-b]pyridin-6-yl)cyclopropanecarboxamide], 20 to 200 nM; with `N#CCC(=O)N1CC=C(c2cc(NC(=O)C3CC3)nc3[nH]ccc23)CC12CCC2` [Example 414, N-(4-(5-(2-cyanoacetyl)-5-azaspiro[3.5]non-7-en-8-yl)-1H-pyrrolo[2,3-b]pyridin-6-yl)cyclopropanecarboxamide], under 20 nM.
`COC(=O)C1(C(=O)N2CC=C(c3cc(NC(=O)C4CC4)nc4[nH]ccc34)C(C)C2)CC1` (stereo not shown) [Example 319, methyl 1-(4-(6-(cyclopropanecarboxamido)-1H-pyrrolo[2,3-b]pyridin-4-yl)-3-methyl-1,2,3,6-tetrahydropyridine-1-carbonyl)cyclopropane-1-carboxylate]: the IC50 is over 200 nM.
Turning to `N#CCC(=O)N1CCC(N2CC(CC#N)(N3CC=C(c4cc(NC(=O)C5CC5)nc5[nH]ccc45)CC3)C2)CC1` [Example 622, N-(4-(1-(1-(1-(2-cyanoacetyl)piperidin-4-yl)-3-(cyanomethyl)azetidin-3-yl)-1,2,3,6-tetrahydropyridin-4-yl)-1H-pyrrolo[2,3-b]pyridin-6-yl)cyclopropanecarboxamide], the IC50 lay in the range of 20 to 200 nM.
As to `N#CC1(CS(=O)(=O)Nc2c(F)cc(-c3cc(NC(=O)C4CC4)nc4[nH]ccc34)cc2F)CC1` [Example 107, N-(4-(4-(((1-cyanocyclopropyl)methyl)sulfonamido)-3,5-difluorophenyl)-1H-pyrrolo[2,3-b]pyridin-6-yl)cyclopropanecarboxamide], the IC50 was 20 to 200 nM.
With `N#CCCC(=O)N1CC=C(c2cc(NC(=O)C3CC3)nc3[nH]ccc23)CC1` [Example 252, N-(4-(1-(3-cyanopropanoyl)-1,2,3,6-tetrahydropyridin-4-yl)-1H-pyrrolo[2,3-b]pyridin-6-yl)cyclopropanecarboxamide], the IC50 is under 20 nM.
As for `N#CCNC(=O)N1CC=C(c2cc(NC(=O)C3CC3)nc3[nH]ccc23)CC1` [Example 447, N-(cyanomethyl)-4-(6-(cyclopropanecarboxamido)-1H-pyrrolo[2,3-b]pyridin-4-yl)-3,6-dihydropyridine-1 (2H)-carboxamide], the figure is 20 to 200 nM.
With `O=C(Nc1cc(-c2ccc(CC(=O)N3CCC(C(F)(F)F)CC3)cc2)c2cc[nH]c2n1)C1CC1` [Example 570, N-(4-(4-(2-oxo-2-(4-(trifluoromethyl)piperidin-1-yl)ethyl)phenyl)-1H-pyrrolo[2,3-b]pyridin-6-yl)cyclopropanecarboxamide] the figure was 20 to 200 nM; with `CCCCOc1ccc(-c2cc(NC(=O)C3CC3)nc3[nH]ccc23)cc1` [Example 643, N-(4-(4-butoxyphenyl)-1H-pyrrolo[2,3-b]pyridin-6-yl)cyclopropanecarboxamide], over 200 nM; with `O=C(Nc1nc(-c2ccc(NCc3cccc(F)c3)cc2)c2cc[nH]c2n1)C1CC1` [Example 474, N-(4-(4-((3-fluorobenzyl)amino)phenyl)-7H-pyrrolo[2,3-d]pyrimidin-2-yl)cyclopropanecarboxamide], under 20 nM.
As for `CCS(=O)(=O)Nc1ccc(-c2cc(NC(=O)C3CC3)nc3[nH]ccc23)nc1F` [Example 149, N-(4-(5-(ethylsulfonamido)-6-fluoropyridin-2-yl)-1H-pyrrolo[2,3-b]pyridin-6-yl)cyclopropanecarboxamide], the figure is over 200 nM.
